In ChEMBL document CHEMBL4622864, “Synthesis and biological evaluation of quinoxaline derivatives as specific c-Met kinase inhibitors” (Bioorg Med Chem Lett, 2020):

Assays:
MKN-45 [1] = experiment: Antiproliferative activity against human MKN45 cells overexpressing c-MET assessed as reduction in cell proliferation; type: functional, cell-based
MKN-45 [2] = experiment: Antitumor activity against human MKN45 cells xenografted in nude mouse assessed as tumor growth inhibition at 20 mg/kg, po administered once daily for 14 days relative to control; type: functional; settings: MKN-45, po, 336 h, read-out: TGI
[3] = target: T1, Hepatocyte growth factor receptor (Homo sapiens, UniProt P08581); experiment: Inhibition of c-Met (unknown origin) by ADP-Glo kinase assay
T1 sequence (P08581 whole entry): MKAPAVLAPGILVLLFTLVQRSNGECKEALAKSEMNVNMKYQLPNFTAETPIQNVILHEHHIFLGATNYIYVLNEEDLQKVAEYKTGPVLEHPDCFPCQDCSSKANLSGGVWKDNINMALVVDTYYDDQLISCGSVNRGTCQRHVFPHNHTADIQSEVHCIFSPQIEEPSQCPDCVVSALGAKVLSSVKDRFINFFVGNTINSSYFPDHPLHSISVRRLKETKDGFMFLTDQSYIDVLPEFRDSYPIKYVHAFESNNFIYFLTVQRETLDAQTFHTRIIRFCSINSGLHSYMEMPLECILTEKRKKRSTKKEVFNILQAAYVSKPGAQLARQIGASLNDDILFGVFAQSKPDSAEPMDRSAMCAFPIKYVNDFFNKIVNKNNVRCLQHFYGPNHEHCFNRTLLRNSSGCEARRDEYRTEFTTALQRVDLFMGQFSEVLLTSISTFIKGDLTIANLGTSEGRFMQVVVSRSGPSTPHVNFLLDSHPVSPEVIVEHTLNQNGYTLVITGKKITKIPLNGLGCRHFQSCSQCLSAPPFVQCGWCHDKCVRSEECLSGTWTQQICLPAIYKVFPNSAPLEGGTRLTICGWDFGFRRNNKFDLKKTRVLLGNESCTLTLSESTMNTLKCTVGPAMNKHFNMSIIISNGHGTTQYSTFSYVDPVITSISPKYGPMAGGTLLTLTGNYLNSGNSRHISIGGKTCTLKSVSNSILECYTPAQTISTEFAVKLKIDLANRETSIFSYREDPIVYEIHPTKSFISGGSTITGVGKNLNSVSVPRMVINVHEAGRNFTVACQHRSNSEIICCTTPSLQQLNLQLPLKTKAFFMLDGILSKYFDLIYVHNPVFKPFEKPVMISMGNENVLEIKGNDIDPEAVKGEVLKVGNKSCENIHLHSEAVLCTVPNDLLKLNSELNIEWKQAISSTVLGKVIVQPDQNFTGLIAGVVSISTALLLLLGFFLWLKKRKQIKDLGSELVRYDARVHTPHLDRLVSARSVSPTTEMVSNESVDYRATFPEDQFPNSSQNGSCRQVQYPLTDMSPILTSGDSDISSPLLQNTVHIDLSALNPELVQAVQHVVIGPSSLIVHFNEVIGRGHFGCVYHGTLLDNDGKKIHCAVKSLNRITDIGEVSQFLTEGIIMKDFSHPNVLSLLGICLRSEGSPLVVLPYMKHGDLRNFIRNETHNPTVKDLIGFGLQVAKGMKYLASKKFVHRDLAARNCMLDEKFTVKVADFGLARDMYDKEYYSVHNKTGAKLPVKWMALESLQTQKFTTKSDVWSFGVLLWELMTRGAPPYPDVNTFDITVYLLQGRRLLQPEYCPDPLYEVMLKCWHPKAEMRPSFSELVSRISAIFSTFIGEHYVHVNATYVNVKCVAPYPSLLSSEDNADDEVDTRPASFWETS

[4] = target: Proto-oncogene tyrosine-protein kinase receptor Ret (Homo sapiens) (UniProt P07949); experiment: Inhibition of RET (unknown origin) at 100 nM relative to control
[5] = target: Fibroblast growth factor receptor 1 (Homo sapiens) (UniProt P11362); experiment: Inhibition of FGFR1 (unknown origin) at 100 nM relative to control
[6] = target: Platelet-derived growth factor receptor alpha (Homo sapiens) (UniProt P16234); experiment: Inhibition of PDGFRalpha (unknown origin) at 100 nM relative to control
Platelet-derived growth factor receptor alpha (Homo sapiens), sequence (P16234 whole entry): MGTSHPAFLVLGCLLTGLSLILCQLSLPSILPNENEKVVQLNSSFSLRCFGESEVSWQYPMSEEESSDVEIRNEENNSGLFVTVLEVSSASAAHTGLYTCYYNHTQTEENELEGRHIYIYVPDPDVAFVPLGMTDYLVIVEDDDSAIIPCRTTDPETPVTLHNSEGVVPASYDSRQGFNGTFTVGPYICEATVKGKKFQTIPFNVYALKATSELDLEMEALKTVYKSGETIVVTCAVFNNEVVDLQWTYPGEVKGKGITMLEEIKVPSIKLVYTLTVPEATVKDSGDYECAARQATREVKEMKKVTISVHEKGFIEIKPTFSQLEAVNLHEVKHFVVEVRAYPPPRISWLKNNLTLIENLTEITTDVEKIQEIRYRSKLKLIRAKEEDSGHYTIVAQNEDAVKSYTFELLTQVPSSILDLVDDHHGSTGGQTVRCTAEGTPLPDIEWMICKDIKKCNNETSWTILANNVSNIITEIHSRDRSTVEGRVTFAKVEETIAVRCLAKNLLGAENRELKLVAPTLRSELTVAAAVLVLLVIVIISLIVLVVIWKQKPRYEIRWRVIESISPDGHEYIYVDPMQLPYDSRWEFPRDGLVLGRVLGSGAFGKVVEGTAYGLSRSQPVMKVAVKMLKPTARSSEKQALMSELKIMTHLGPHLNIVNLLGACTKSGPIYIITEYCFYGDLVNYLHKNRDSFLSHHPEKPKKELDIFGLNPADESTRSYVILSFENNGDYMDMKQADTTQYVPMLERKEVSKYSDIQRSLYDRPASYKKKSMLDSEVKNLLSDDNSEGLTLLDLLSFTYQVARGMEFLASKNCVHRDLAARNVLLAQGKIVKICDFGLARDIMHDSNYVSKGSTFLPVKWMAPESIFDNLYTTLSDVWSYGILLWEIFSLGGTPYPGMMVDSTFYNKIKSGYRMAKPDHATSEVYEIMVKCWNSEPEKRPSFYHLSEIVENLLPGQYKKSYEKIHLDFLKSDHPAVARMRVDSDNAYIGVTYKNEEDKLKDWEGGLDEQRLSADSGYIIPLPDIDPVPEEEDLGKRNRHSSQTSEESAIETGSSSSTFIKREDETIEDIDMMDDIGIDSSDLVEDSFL

[7] = tested on: Tyrosine-protein kinase ABL1 (Homo sapiens), P00519 [T315I]; experiment: Inhibition of ABL T315I mutant (unknown origin) 100 nM relative to control
[8] = target: Macrophage colony-stimulating factor 1 receptor (Homo sapiens) (UniProt P07333); experiment: Inhibition of CSF1R (unknown origin) at 100 nM relative to control
[9] = target: Angiopoietin-1 receptor (Homo sapiens) (UniProt Q02763); experiment: Inhibition of human TIE2 at 100 nM relative to control
[10] = target: Platelet-derived growth factor receptor beta (Homo sapiens) (UniProt P09619); experiment: Inhibition of human PDGFRbeta at 100 nM relative to control
[11] = Metabolic stability in human microsomes assessed as parent compound remaining measured after 30 mins; type: ADME, Microsome; settings: read-out: Stability
[12] = target: Fibroblast growth factor receptor 1 (Homo sapiens) (UniProt P11362); experiment: Inhibition of FGFR1 (unknown origin) at 10 nM relative to control
CYP2C9 = CYP2C9 (Homo sapiens, UniProt P11712); experiment: Inhibition of CYP2C9 (unknown origin) at 10 uM relative to control; type: ADME
[13] = target: Tyrosine-protein kinase receptor UFO (Homo sapiens) (UniProt P30530); experiment: Inhibition of AXL (unknown origin) at 100 nM relative to control
Tyrosine-protein kinase receptor UFO (Homo sapiens), sequence (P30530 whole entry): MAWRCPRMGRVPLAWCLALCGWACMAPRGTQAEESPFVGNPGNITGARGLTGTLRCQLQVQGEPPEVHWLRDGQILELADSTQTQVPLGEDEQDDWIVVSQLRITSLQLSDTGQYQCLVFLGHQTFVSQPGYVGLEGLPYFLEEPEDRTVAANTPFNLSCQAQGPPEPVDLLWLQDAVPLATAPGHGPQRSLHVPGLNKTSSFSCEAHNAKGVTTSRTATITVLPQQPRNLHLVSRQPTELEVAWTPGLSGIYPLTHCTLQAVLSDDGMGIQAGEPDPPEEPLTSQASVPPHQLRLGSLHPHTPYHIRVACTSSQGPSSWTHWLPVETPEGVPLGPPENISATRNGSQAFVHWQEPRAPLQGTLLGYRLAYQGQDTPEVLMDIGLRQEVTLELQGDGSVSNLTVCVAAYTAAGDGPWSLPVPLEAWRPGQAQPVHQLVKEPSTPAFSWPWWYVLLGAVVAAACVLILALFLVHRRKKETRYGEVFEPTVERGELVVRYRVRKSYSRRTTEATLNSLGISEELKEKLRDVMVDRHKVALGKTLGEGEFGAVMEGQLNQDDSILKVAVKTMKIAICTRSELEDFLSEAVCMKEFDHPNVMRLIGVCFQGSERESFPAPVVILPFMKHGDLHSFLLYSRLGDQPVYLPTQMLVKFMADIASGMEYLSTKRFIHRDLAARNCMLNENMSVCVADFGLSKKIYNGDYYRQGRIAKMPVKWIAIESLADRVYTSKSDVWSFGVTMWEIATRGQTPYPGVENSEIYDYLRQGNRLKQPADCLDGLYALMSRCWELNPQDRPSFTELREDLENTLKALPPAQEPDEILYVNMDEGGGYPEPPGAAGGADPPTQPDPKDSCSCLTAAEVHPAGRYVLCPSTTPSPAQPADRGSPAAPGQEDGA

CYP2C19 = CYP2C19 (Homo sapiens, UniProt P33261); experiment: Inhibition of CYP2C19 (unknown origin) at 10 uM relative to control; type: ADME
[14] = target: Macrophage-stimulating protein receptor (Homo sapiens) (UniProt Q04912); experiment: Inhibition of RON (unknown origin) at 100 nM relative to control
[15] = target: Insulin-like growth factor 1 receptor (Homo sapiens) (UniProt P08069); experiment: Inhibition of IGF1R (unknown origin) at 10 nM relative to control
MKN-45 [16] = experiment: Antitumor activity against human MKN45 cells xenografted in po dosed nude mouse assessed as tumor growth inhibition administered once daily for 14 days; type: functional, organism-based
[17] = target: Tyrosine-protein kinase Lck (Homo sapiens) (UniProt P06239); experiment: Inhibition of LCK (unknown origin) at 100 nM relative to control
[18] = target: Vascular endothelial growth factor receptor 3 (Homo sapiens) (UniProt P35916); experiment: Inhibition of VEGFR3 (unknown origin) at 10 nM relative to control
Vascular endothelial growth factor receptor 3 (Homo sapiens), sequence (P35916 whole entry): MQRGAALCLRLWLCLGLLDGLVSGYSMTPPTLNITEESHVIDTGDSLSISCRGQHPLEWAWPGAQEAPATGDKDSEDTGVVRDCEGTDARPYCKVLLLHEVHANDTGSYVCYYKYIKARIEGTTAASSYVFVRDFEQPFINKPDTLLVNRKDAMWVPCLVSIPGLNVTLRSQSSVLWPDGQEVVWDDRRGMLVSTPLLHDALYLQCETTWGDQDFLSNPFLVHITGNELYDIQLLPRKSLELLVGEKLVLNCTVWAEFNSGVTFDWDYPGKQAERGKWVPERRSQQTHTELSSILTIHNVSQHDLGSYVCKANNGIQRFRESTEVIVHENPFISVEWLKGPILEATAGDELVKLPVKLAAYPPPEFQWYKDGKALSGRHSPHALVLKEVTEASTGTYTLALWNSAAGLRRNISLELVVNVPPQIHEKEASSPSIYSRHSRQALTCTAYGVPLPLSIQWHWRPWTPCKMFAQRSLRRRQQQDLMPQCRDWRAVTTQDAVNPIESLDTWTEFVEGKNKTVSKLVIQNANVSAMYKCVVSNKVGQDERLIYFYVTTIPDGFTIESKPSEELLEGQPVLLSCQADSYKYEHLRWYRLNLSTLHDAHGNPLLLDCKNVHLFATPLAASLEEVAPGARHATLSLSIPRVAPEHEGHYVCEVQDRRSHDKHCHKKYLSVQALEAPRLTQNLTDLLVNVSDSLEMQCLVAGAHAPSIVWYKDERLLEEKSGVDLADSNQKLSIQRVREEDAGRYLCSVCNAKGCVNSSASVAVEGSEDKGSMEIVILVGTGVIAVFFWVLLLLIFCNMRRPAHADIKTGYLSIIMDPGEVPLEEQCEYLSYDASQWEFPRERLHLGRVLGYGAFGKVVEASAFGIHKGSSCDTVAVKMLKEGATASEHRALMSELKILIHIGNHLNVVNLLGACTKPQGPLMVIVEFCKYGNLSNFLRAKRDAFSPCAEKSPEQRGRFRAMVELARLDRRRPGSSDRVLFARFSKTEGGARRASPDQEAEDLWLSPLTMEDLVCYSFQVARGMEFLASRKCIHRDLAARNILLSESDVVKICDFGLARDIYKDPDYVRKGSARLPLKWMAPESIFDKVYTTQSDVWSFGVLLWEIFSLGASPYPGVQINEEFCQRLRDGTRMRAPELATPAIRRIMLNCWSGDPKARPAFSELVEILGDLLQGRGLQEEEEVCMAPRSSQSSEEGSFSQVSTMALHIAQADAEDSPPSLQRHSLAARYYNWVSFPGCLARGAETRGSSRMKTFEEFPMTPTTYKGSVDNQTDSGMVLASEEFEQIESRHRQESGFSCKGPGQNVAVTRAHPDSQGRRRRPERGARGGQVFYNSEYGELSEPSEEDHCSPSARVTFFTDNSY

[19] = target: Vascular endothelial growth factor receptor 3 (Homo sapiens) (UniProt P35916); experiment: Inhibition of VEGFR3 (unknown origin) at 100 nM relative to control
[20] = target: Macrophage-stimulating protein receptor (Homo sapiens) (UniProt Q04912); experiment: Inhibition of RON (unknown origin) at 10 nM relative to control
[21] = target: Fibroblast growth factor receptor 2 (Homo sapiens) (UniProt P21802); experiment: Inhibition of FGFR2 (unknown origin) at 100 nM relative to control
[22] = target: Macrophage colony-stimulating factor 1 receptor (Homo sapiens) (UniProt P07333); experiment: Inhibition of CSF1R (unknown origin) at 10 nM relative to control
[23] = Metabolic stability in mouse microsomes assessed as parent compound remaining measured after 30 mins; type: ADME, Microsome; settings: read-out: Stability
[24] = target: Receptor-type tyrosine-protein kinase FLT3 (Homo sapiens) (UniProt P36888); experiment: Inhibition of FLT3 (unknown origin) at 100 nM relative to control
CYP3A4 = CYP3A4 (Homo sapiens, UniProt P08684); experiment: Inhibition of CYP3A4 (unknown origin) at 10 uM relative to control; type: ADME
[25] = tested on: Tyrosine-protein kinase ABL1 (Homo sapiens), P00519 [T315I]; experiment: Inhibition of ABL T315I mutant (unknown origin) 10 nM relative to control
[26] = target: Mast/stem cell growth factor receptor Kit (Homo sapiens) (UniProt P10721); experiment: Inhibition of C-kit (unknown origin) at 100 nM relative to control
[27] = target: Proto-oncogene tyrosine-protein kinase Src (Homo sapiens) (UniProt P12931); experiment: Inhibition of c-SRC (unknown origin) at 100 nM relative to control
[28] = target: ALK tyrosine kinase receptor (Homo sapiens) (UniProt Q9UM73); experiment: Inhibition of ALK (unknown origin) at 10 nM relative to control
[29] = target: Platelet-derived growth factor receptor alpha (Homo sapiens) (UniProt P16234); experiment: Inhibition of PDGFRalpha (unknown origin) at 10 nM relative to control
[30] = target: T1, Hepatocyte growth factor receptor; experiment: Inhibition of human c-MET at 100 nM relative to control
[31] = target: Proto-oncogene tyrosine-protein kinase Src (Homo sapiens) (UniProt P12931); experiment: Inhibition of c-SRC (unknown origin) at 10 nM relative to control
CYP1A2 = CYP1A2 (Homo sapiens, UniProt P05177); experiment: Inhibition of CYP1A2 (unknown origin) at 10 uM relative to control; type: ADME
[32] = target: Angiopoietin-1 receptor (Homo sapiens) (UniProt Q02763); experiment: Inhibition of human TIE2 at 10 nM relative to control
[33] = target: T1, Hepatocyte growth factor receptor; experiment: Inhibition of human c-MET at 10 nM relative to control
[34] = target: Vascular endothelial growth factor receptor 1 (Homo sapiens) (UniProt P17948); experiment: Inhibition of VEGFR1 (unknown origin) at 100 nM relative to control
[35] = target: Vascular endothelial growth factor receptor 2 (Homo sapiens) (UniProt P35968); experiment: Inhibition of human VEGFR2 at 10 nM relative to control
[36] = target: Tyrosine-protein kinase receptor UFO (Homo sapiens) (UniProt P30530); experiment: Inhibition of AXL (unknown origin) at 10 nM relative to control
CYP2D6 = CYP2D6 (Homo sapiens, UniProt P10635); experiment: Inhibition of CYP2D6 (unknown origin) at 10 uM relative to control; type: ADME
[37] = Metabolic stability in rat microsomes assessed as parent compound remaining measured after 30 mins; type: ADME, Microsome; settings: read-out: Stability
[38] = target: Mast/stem cell growth factor receptor Kit (Homo sapiens) (UniProt P10721); experiment: Inhibition of C-kit (unknown origin) at 10 nM relative to control

Compound: CC(=O)N1CCC(n2cc(-c3cncc(O[C@H](C)c4c(Cl)ccc(F)c4Cl)c3)cn2)CC1
- IC50 (MKN-45 [1]): 117 nM

Compound: CC(C)N1CCC(n2cc(-c3cncc(O[C@H](C)c4c(Cl)ccc(F)c4Cl)c3)cn2)CC1
- IC50 (MKN-45 [1]): 132 nM

Compound: C[C@@H](Oc1cncc(-c2cnn(C3CCN(CC4CC4)CC3)c2)c1)c1c(Cl)ccc(F)c1Cl
- IC50 (MKN-45 [1]): 306 nM

Compound: C[C@@H](Oc1ccc2ncc(-c3cnn(C)c3)nc2c1)c1c(Cl)ccc(F)c1Cl
- IC50 (MKN-45 [1]): 735 nM

Compound: CC(=O)N1CCC(n2cc(-c3cnc(F)c(O[C@H](C)c4c(Cl)ccc(F)c4Cl)c3)cn2)CC1
- IC50 (MKN-45 [1]): 77 nM

Compound: C[C@@H](Oc1cc(-c2cnn(C3CCNCC3)c2)cnc1N)c1c(Cl)ccc(F)c1Cl [CRIZOTINIB]
- inhibition in vivo at 20 mg/kg (MKN-45 [2]): 29%
- IC50 (MKN-45 [1]): 9.1 to 38 nM

Compound: C[C@H](Oc1cncc(-c2cnn(C3CCNCC3)c2)c1)c1c(Cl)ccc(F)c1Cl
- IC50 [3]: 92 nM
- IC50 (MKN-45 [1]): 797 nM

Compound: C[C@@H](Oc1cc(-c2cnn(C3CCNCC3)c2)cnc1F)c1c(Cl)ccc(F)c1Cl
- IC50 (MKN-45 [1]): 114 nM

Compound: C[C@@H](Oc1cncc(-c2cnn(C3CCN(C)CC3)c2)c1)c1c(Cl)ccc(F)c1Cl
- IC50 (MKN-45 [1]): 227 nM

Compound: CC(=O)OCCn1cc(-c2cnc3ccc(O[C@H](C)c4c(Cl)ccc(F)c4Cl)cc3n2)cn1
- IC50 (MKN-45 [1]): 252 nM

Compound: C[C@@H](Oc1ccc2ncc(-c3cnn(CCO)c3)nc2c1)c1c(Cl)ccc(F)c1Cl
- IC50 (MKN-45 [1]): 196 nM

Compound: C[C@@H](Oc1cncc(-c2cnn(C3CCN(S(C)(=O)=O)CC3)c2)c1)c1c(Cl)ccc(F)c1Cl
- IC50 (MKN-45 [1]): 243 nM

Compound: C[C@@H](Oc1cncc(-c2cnn(C3CCNCC3)c2)c1)c1c(Cl)ccc(F)c1Cl
- inhibition [4]: -3%
- inhibition [5]: -5%
- inhibition [6]: -4%
- inhibition [7]: 63%
- inhibition [8]: 67%
- inhibition [9]: 33%
- inhibition [10]: -10%
- remaining at 0.5 h [11]: 94%
- inhibition [12]: -7%
- inhibition at 10 µM (CYP2C9): 79%
- IC50 [3]: 6 nM
- inhibition [13]: 75%
- inhibition in vivo at 20 mg/kg (MKN-45 [2]): 48%
- inhibition at 10 µM (CYP2C19): 63%
- inhibition [14]: 49%
- inhibition [15]: -4%
- TGI (MKN-45 [16]): Dose-dependent effect
- inhibition [17]: 47%
- inhibition [18]: -5%
- inhibition [19]: 0%
- inhibition [20]: -9%
- inhibition [21]: 0%
- inhibition [22]: 15%
- remaining at 0.5 h [23]: 96%
- inhibition [24]: 8%
- inhibition at 10 µM (CYP3A4): 76%
- inhibition [25]: 43%
- inhibition [26]: 4%
- inhibition [27]: -7%
- inhibition [28]: 31%
- inhibition [29]: 3%
- IC50 (MKN-45 [1]): 175 nM
- inhibition [30]: 100%
- inhibition [31]: -10%
- inhibition at 10 µM (CYP1A2): 55%
- inhibition [32]: 2%
- inhibition [33]: 80%
- inhibition [34]: -1%
- inhibition [35]: -4%
- inhibition [36]: 17%
- inhibition at 10 µM (CYP2D6): 28%
- remaining at 0.5 h [37]: 85%
- inhibition [38]: 0%

Compound: C[C@@H](Oc1cncc(-c2cnn(C3CCN(CC(N)=O)CC3)c2)c1)c1c(Cl)ccc(F)c1Cl
- IC50 (MKN-45 [1]): 113 nM
